Test results taken from patent publication US20250136564A1, “PROTEIN TYROSINE PHOSPHATASE INHIBITORS AND USES THEREOF” (Nerio Therapeutics, Inc., priority 2022, published 2025).
pIC50: −log10 of the molar value.

Experiments:
[1] = target: full-length human PTPN2 (TC45) (1-387) protein (Homo sapiens (Human), UniProt P17706); experiment: Enzymatic assay, full-length PTPN2 DiFMUP assay; assay type: biochemical; settings: 0.5 nM PTPN2, 100 μM DiFMUP, 30 min at room temperature
From the text: Example A: Enzymatic Assay Used to Determine Potency of PTPN2 Inhibitors
Compounds were subsequently added using a Tecan D300e dispenser. […] A four-parameter curve fit was used to determine IC50 values from % inhibition data.

[2] = tested on: murine B16F10 melanoma cell line; experiment: B16F10 IFNγ-induced cellular growth inhibition assay (xCELLigence RTCA); assay type: cell-based; settings: Mus musculus, B16-F10, 48 h; read-out: B16 IFNγ Mediated Growth Inhibition Assay: AVG IC50
Protocol: Example B: B16F10 Cellular Growth Inhibition Assay
Compound activity was determined using an interferon gamma (IFNγ)-induced cellular growth inhibition assay with the murine B16F10 melanoma cell line on an Agilent xCELLigence Real-Time Cell Analysis platform (RTCA). RTCA E-Plate View 96 plates (Agilent, 300601010) were pre-equilibrated with 50 μL of assay media (DMEM+10% FBS, Gibco 10566-024, Gibco 10082-147) at 37° C., in a humidified incubator before taking an initial measurement of impedance (sweep). B16F10 cells cultured in assay media were dissociated with TrypLE Express (Gibco 12605-010) for five minutes at 37° C., diluted in 3 volumes of assay buffer, centrifuged for 5 minutes at 500×g at room temperature before diluting cells to 7,700 cells/mL in assay media, plating 130 μL/well (1,000 cells/well) in the inner 60 wells of the assay plate, and adding 150 μL of assay media to the outer wells of the plate. Cells were incubated at room temperature for 20 min to allow cells to settle before placing them in the xCELLigence reader and incubating overnight at 37° C., sweeping wells every 15 minutes. After 24 hours, well readings were paused, plates were removed from the incubator and compounds were added using a Tecan D300e dispenser. All wells were normalized to a final concentration of 0.5% DMSO. Following a 30 min incubation at 37° C., recombinant mouse IFNγ (R&D Systems™ 485 MI100) was diluted to 10 ng/ml in assay media and 20 μL was added to assay wells (1 ng/mL final concentration). Assay plates were placed in the xCELLigence reader and swept every 15 minutes. After 48 hours, well readings were normalized to the time point immediately preceding compound addition and the area under the growth curve (AUC) was calculated by the RTCA software and exported.

full-length human PTPN2 (TC45) (1-387) protein, sequence (P17706 other isoform, or with tags, fused parts or gaps): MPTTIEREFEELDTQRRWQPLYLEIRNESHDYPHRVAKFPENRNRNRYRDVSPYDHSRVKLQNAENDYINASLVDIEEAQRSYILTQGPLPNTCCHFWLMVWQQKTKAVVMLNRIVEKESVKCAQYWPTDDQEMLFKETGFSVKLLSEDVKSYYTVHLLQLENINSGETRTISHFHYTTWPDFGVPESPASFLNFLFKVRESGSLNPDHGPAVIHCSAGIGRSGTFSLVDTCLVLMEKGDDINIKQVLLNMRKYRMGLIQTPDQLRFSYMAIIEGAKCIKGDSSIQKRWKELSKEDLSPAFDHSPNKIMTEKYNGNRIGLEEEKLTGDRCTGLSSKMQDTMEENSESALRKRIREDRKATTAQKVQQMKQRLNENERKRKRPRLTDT

Row | pIC50 [2] | Structure (SMILES) | pIC50 [1]
1 | – | COc1cc2c(c(F)c1N1CC(=O)NS1(=O)=O)CC(NCCC(C)C)CN2C (stereo not drawn) [Example 1, 5-(5-fluoro-3-(isopentylamino)-7-methoxy-1-methyl-1,2,3,4-tetrahydroquinolin-6-yl)-1,2,5-thiadiazolidin-3-one 1,1-dioxide] | < 4.52
2 | 5.84 | CC(C)CCNC1CNc2cc(O)c(N3CC(=O)NS3(=O)=O)c(F)c2C1 (stereo not drawn) [Example 2, 5-(5-fluoro-7-hydroxy-3-(isopentylamino)-1,2,3,4-tetrahydroquinolin-6-yl)-1,2,5-thiadiazolidin-3-one 1,1-dioxide] | 7.89
3 | 5.48 | O=C1CN(c2c(O)cc3c(c2F)CCCN3)S(=O)(=O)N1 [Example 3, 5-(5-fluoro-7-hydroxy-1,2,3,4-tetrahydroquinolin-6-yl)-1,2,5-thiadiazolidin-3-one 1,1-dioxide] | 6.88
4 | 4.90 | CN1CCCc2c1cc(O)c(N1CC(=O)NS1(=O)=O)c2F [Example 4, 5-(5-fluoro-7-hydroxy-1-methyl-1,2,3,4-tetrahydroquinolin-6-yl)-1,2,5-thiadiazolidin-3-one 1,1-dioxide] | 6.06
5 | – | CCN1CCCc2c1cc(O)c(N1CC(=O)NS1(=O)=O)c2F [Example 5] | 6.06
6 | – | CC(C)CN1CCCc2c1cc(O)c(N1CC(=O)NS1(=O)=O)c2F [Example 6] | 6.02
7 | – | O=C1CN(c2c(O)cc3c(c2F)CCCN3Cc2ccccc2)S(=O)(=O)N1 [Example 7] | 6.27
8 | – | CC(C)CCN1CCCc2c1cc(O)c(N1CC(=O)NS1(=O)=O)c2F [Example 8] | 6.02
9 | – | O=C1CN(c2c(O)cc3c(c2F)CCCN3CCc2ccccc2)S(=O)(=O)N1 [Example 9] | 5.79
